Paper PMC9718777, “A growth selection system for the directed evolution of amine-forming or converting enzymes” (Nature Communications, 2022)

Legend:
[1] = target: T1, AtTA(wt), (R)-selective amine transaminase (Aspergillus terreus, UniProt Q0C8G1); assay: specific activity of purified enzyme with pyruvate; assay type: biochemical
T1 construct: gene ATEG_10023
T1 sequence (Q0C8G1 1-325): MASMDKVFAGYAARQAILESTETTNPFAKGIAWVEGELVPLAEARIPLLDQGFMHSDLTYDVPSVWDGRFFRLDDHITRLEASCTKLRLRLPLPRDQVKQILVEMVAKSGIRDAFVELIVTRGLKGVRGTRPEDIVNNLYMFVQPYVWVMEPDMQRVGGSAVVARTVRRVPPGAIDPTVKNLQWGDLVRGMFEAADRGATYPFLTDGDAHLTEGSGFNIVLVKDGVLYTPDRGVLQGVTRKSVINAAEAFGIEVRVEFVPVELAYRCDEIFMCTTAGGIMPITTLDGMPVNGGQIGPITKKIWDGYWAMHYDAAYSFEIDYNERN

[2] = target: T2, AtTA(RHC), (R)-selective amine transaminase (Aspergillus terreus, UniProt Q0C8G1, H55R/F115H/E117C); assay: specific activity of purified variant with pyruvate; asymmetric synthesis; assay type: biochemical
T2 construct: gene ATEG_10023

[3] = target: T1, AtTA(wt), (R)-selective amine transaminase; assay: specific activity (benchmark substrate); assay type: biochemical
[4] = target: T3, PcPAL(wt), phenylalanine ammonia lyase (Petroselinum crispum, UniProt P24481); assay: specific activity of purified enzyme; assay type: biochemical
T3 construct: gene PAL1

[5] = target: T4, PcPAL(AI), phenylalanine ammonia lyase (Petroselinum crispum, UniProt P24481, L134A/L256I); assay: specific activity of purified variant (amination of […]); assay type: biochemical
T4 construct: gene PAL1; purified variant of full-length PcPAL, recombinant in E. coli; MIO-dependent homotetramer

[6] = target: T3, PcPAL(wt), phenylalanine ammonia lyase; assay: specific activity; assay type: biochemical
[7] = test system: C[C@H](N)c1cccc2ccccc12; assay: purified protein; assay type: biochemical, Microbacterium oxydans; conditions: FAD active site
[8] = substrate: C[C@H](N)c1cccc2ccccc12; assay: purified protein; assay type: biochemical, Microbacterium oxydans; conditions: FAD active site; remark: listed apart in the source

CC(C)(C)OC(=O)N1CCC[C@@H](N)C1 [(R)-1, (R)-1-Boc-3-aminopiperidine]
specific activity of purified enzyme with pyruvate [1]: 0.038 U/mg
specific activity of purified variant with pyruvate; asymmetric synthesis [2]: 4.2 U/mg

C[C@@H](N)c1ccccc1 [(R)-1-phenylethylamine]
specific activity (benchmark substrate) [3]: 2.9 U/mg

N[C@@H](Cc1cccc2ccccc12)C(=O)O [(S)-5, (S)-2-amino-3-(naphthalen-1-yl)propanoic acid]
specific activity of purified enzyme [4]: 0.0027 U/mg

O=C(O)/C=C/c1cccc2ccccc12 [compound 6, 6]
specific activity of purified variant (amination of 6) [5]: 0.55 U/mg

N[C@@H](Cc1ccccc1)C(=O)O [ʟ-phenylalanine]
specific activity [6]: 0.147 U/mg

CHAO(MVLM), cyclohexylamine oxidase (Microbacterium oxydans; L182V/M209L/T181M/Y304M)
Km [7]: 2.2 mM

B1: CHAO(wt), cyclohexylamine oxidase (Microbacterium oxydans) (protein)
chain: THLNTYESVTPDPDVDVIIIGAGISGSAAAKALHDQGASVLVVEANDRIGGRTWTEQEGAPGGPIDYGGMFIGETHTHLIELGTSLGLEMTPSGKPGDDTYIVAGNVLRAPDDQLDPNLPFVPEFLSSLKALDELADSVGWDQPWASPNAAALDSKTVATWLAETIESEEVRRLHTVIVNTLLGADPYEVSLLYWAYYVSECEGIQSLMGTRDGAQWAWWFGGAAQVSWRIADAIGRDKFLLEWPVDRIEHDESGVTLFSGQRSLRARHIVIAMSPLAANQIRFEPALPTSRAQLQARAPMGRYYKVQARYPSSFWVEQGYSGALLDTEDVGVFLLDGTKPTDTLATLIGFIGGSNYDRWAAHTPQERERAFLDLLVKAFGPQAADPSYFHETDWTQQEWAKGGPVTYMPPGVLANFGAALRDPVGKVHFAGTEASFQWSGYMEGGVRAGQKAAAAIAEELERTANKGALV
Km [8]: 4.5 mM
